Assay results published in publication PMC12267471, “Discovery of natural scaffolds as HER2 inhibitors for breast cancer: virtual screening, molecular dynamics, and biological characterization with selectivity profiling” (Scientific Reports, 2025).

How the values were obtained:
BT-474 cells = experiment: Transwell cell migration assay, BT-474; format: cell-based; conditions: Homo sapiens; BT-474, 3.5 µM, 24 h; read-out: inhibition of migration relative to vehicle-treated cells
Protocol: (§1) The in vitro transwell migration assay was conducted using an HTS-96 transwell permeable support chamber with 8 μm pores (Corning, USA) equipped with polyvinylpyrrolidone-free polycarbonate (PVPF) filters. […] The plate was incubated for 24 h at 37 °C. Then, the transwell inserts were incubated in the receiver plate with Calcein AM/cell dissociation solution at 37 °C in 5% CO2 incubator for 1 h, followed by measuring the fluorescence using a fluorescence plate reader with 485 nm excitation and 520 nm emission filter package. The relative fluorescence units were converted to cell count using a standard curve. The number of cells that moved to the lower side of the filter was used to assess migratory characteristics. The experiment in both cell lines was conducted in triplicate and data are presented as the mean ± SD.

SKBR3 cells [1] = experiment: Transwell cell migration assay, SKBR3; format: cell-based, human; conditions: SKBR3, 6.4 µM, 24 h
Protocol: as §1

SKBR3 cells [2] = experiment: Annexin V-FITC/PI apoptosis detection, SKBR3; format: cell-based, human; conditions: SKBR3, 6.4 µM, 48 h
Protocol: To evaluate the induction of apoptosis, the translocation of phosphatidylserine to the outer cell membrane, as a hallmark of early apoptosis, was detected by the binding of annexin V, using the Annexin V-FITC Early Apoptosis Detection Kit (BD BioVision). Cells were seeded at a density of 5 × 10^5 cells per 100 mm culture plate and allowed to adhere overnight. […] At the end of the treatment period, cells were harvested by trypsinization, washed twice with ice-cold PBS, and resuspended in 500 µL of chilled 1X Annexin V Binding Buffer. To each sample, 5 µL of Annexin V-FITC conjugate and 5 µL of propidium iodide (PI, 50 µg/mL) were added. The cell suspensions were incubated for 5 minutes on ice in the dark to allow for staining.
Flow cytometric analysis was performed using excitation at 488 nm and emission at 530 nm for FITC detection (FL1 channel) and phycoerythrin emission settings for PI detection (FL2 channel). Data acquisition and analysis were facilitated by Cell Quest software (BD Biosciences), with dot plots divided into four quadrants to distinguish different cell populations: lower left (LL) for viable, non-apoptotic cells (negative for both annexin V and PI); lower right (LR) for early apoptotic cells (annexin V-positive, PI-negative); upper left (UL) for dead or necrotic cells (PI-positive, annexin V-negative); and upper right (UR) for late apoptotic cells (double-positive). All assays were conducted in triplicate to ensure reliability and reproducibility.

caspase 9 = experiment: Real-time PCR caspase gene expression in BT-474 cells; format: cell-based, human; conditions: BT-474, liquiritin at its IC50
Protocol: (§2) RNA extraction was performed using Qiagen total RNA extraction kit from seeded BT-474 cells untreated and treated with liquiritin at a concentration equivalent to its respective IC50 value (determined via prior proliferation assays) according to the manufacturer’s manual. NanoDrop Lite Plus spectrophotometer™ (ThermoScientific, USA) was used for quantitation and purity evaluation of the extracted total RNA. cDNA synthesis and real-time quantitative PCR were performed in one reaction tube using iScript™ One-Step RT-PCR Kit with SYBR® Green (Bio-Rad, USA) using primers listed in Table S2 per the instruction’s manual. The relative gene expression of caspases 3, 8, and 9 was analyzed using the 2^−ΔΔCT method along with untreated BT-474 cells as control and Glyceraldehyde-3-phosphate dehydrogenase (GAPDH) as a housekeeping gene. The data were expressed as fold change in gene expression.

caspase 8 = experiment: as above; format: cell-based, human; conditions: BT-474, liquiritin at its IC50
Protocol: as §2

caspase 3 = experiment: as above; format: cell-based, human; conditions: BT-474, liquiritin at its IC50
Protocol: as §2

`O=C1C[C@@H](c2ccc(O[C@@H]3O[C@H](CO)[C@@H](O)[C@H](O)[C@H]3O)cc2)Oc2cc(O)ccc21` [Liquiritin] was tested, and the inhibition at 3.5 µM (BT-474 cells) was about 76%, the reduction in migration (SKBR3 cells [1]) was “approximately 23%” and the early apoptotic population (SKBR3 cells [2]) was 7.33%. For the same molecule, the “late apoptosis (Annexin V+/PI+) cells” value (SKBR3 cells [2]) was 14.59%, the necrotic population (SKBR3 cells [2]) was 2.84% and the “caspase 9 expression, fold change vs untreated cells” value (caspase 9) was about 8.1 fold. For the same molecule, the “caspase-8 expression, fold increase” value (caspase 8) was 2.6 fold and the “caspase 3 expression, fold change vs untreated cells” value (caspase 3) was “approximately 10.8 fold”.
